Data: patent US8247211B2, “Glycopeptide antibiotics” (American Cyanamid Company, priority 2001, dated 2012)
Converted amounts (≈) assume the structure as drawn.

Key:
Enterococcus sp. = test: In vitro antibacterial evaluation: minimum inhibitory concentration (MIC), broth dilution method; assay type: cell-based; conditions: 18 hours at 35° C.
In short: (§1)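 Susceptibility determined by NCCLS-recommended broth dilution (M7-A2), Muller-Hinton II […]. Concentration span 64-0.06 μg/mL, inoculum 5×10^5 CFU/mL. Isolates include strains resistant to methicillin, penicillin and/or vancomycin.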

Streptococcus sp. = test: as above; assay type: cell-based; conditions: 18 hours at 35° C.
In short: as §1

Staphylococcus sp. = test: as above; assay type: cell-based
In short: as §1

Escherichia coli = test: as above; assay type: cell-based; conditions: 18 hours at 35° C.
In short: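 MIC read as lowest drug level preventing visible growth. Organisms at 5×10^5 CFU/mL were exposed to a 64-0.06 μg/mL dilution series in Muller-Hinton II […] following NCCLS broth dilution standard M7-A2.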

[1] = Anatomic pathology (heart and kidney histopathology) in mice; assay type: in vivo, CD-1 mice; conditions: 20 mg/kg intravenously daily for 9 days, microscopic histopathology on day 10
In short: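 Juvenile CD-1 mice (20 days old; 5 vehicle, 5 treated) received glycopeptide antibiotic 20 mg/kg i.v. daily for 9 days. Necropsied tissues formalin-fixed, paraffin-embedded, H&E stained and examined microscopically; findings graded slight to severe versus controls.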

[2] = system: Staphylococcus aureus-SMITH (GC 4543); test: Acute lethal infection in mice (ED50); assay type: in vivo; conditions: female CD-1 mice, intraperitoneal challenge, intravenous dose 30 min. after infection, 7 day survival ratios
In short: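 Lethal systemic infection model: female CD-1 mice, 20 ± 1-2 g, intraperitoneal challenge. Single intravenous treatment 30 min after infection; 7-day survival, pooled from 3 tests, gives ED50.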

[3] = broth dilution, inoculum 5×10^5 CFU/mL

## CC(c1ccccc1)C1NC(=O)CNC(=O)C(CO)NC(=O)C(CC2CNC(=N)N2C2OC(CO)C(O)C(O)C2O)NC(=O)C(CC2CNC(=N)N2)NC(=O)C(Cc2ccc(OC3OC(CO)C(OC4OC5COC6(OC5C(O)C4O)C4CC5CC(C4)CC6C5)C(O)C3O)cc2)NC1=O (stereo not shown) [Example 219]
Enterococcus sp.; Enterococcus avium (GC 4558)
  MIC Enterococcus avium (GC 4558): 4 µg/mL (≈ 2.87 µM)
Enterococcus sp.; Enterococcus faecalis (ATCC 29212)
  MIC Enterococcus faecalis (ATCC 29212): 16 µg/mL (≈ 11.5 µM)
Enterococcus sp.; Enterococcus faecalis (GC 2242)
  MIC Enterococcus faecalis (GC 2242): 8 µg/mL (≈ 5.73 µM)
Enterococcus sp.; Enterococcus faecalis (GC 2691)
  MIC Enterococcus faecalis (GC 2691): 8 µg/mL (≈ 5.73 µM)
Enterococcus sp.; Enterococcus faecalis (GC 3059)
  MIC Enterococcus faecalis (GC 3059): 16 µg/mL (≈ 11.5 µM)
Enterococcus sp.; Enterococcus faecalis (GC 4552)
  MIC Enterococcus faecalis (GC 4552): 8 µg/mL (≈ 5.73 µM)
Enterococcus sp.; Enterococcus faecalis (GC 4553)
  MIC Enterococcus faecalis (GC 4553): 8 µg/mL (≈ 5.73 µM)
Enterococcus sp.; Enterococcus faecalis (GC 4554)
  MIC Enterococcus faecalis (GC 4554): 8 µg/mL (≈ 5.73 µM)
Enterococcus sp.; Enterococcus faecalis (GC 6189)
  MIC Enterococcus faecalis (GC 6189): 8 µg/mL (≈ 5.73 µM)
Enterococcus sp.; Enterococcus faecium (GC 2243)
  MIC Enterococcus faecium (GC 2243): 8 µg/mL (≈ 5.73 µM)
Enterococcus sp.; Enterococcus faecium (GC 4556)
  MIC Enterococcus faecium (GC 4556): 8 µg/mL (≈ 5.73 µM)
Enterococcus sp.; Enterococcus faecium (GC 4557)
  MIC Enterococcus faecium (GC 4557): 4 µg/mL (≈ 2.87 µM)
Enterococcus sp.; [3]
  MIC Enterococcus avium (GC 4558): 4 µg/mL (≈ 2.87 µM)
  MIC Enterococcus faecalis (ATCC 29212): 16 µg/mL (≈ 11.5 µM)
  MIC Enterococcus faecalis (GC 2242): 8 µg/mL (≈ 5.73 µM)
  MIC Enterococcus faecalis (GC 2691): 8 µg/mL (≈ 5.73 µM)
  MIC Enterococcus faecalis (GC 3059): 16 µg/mL (≈ 11.5 µM)
  MIC Enterococcus faecalis (GC 4552): 8 µg/mL (≈ 5.73 µM)
  MIC Enterococcus faecalis (GC 4553): 8 µg/mL (≈ 5.73 µM)
  MIC Enterococcus faecalis (GC 4554): 8 µg/mL (≈ 5.73 µM)
  MIC Enterococcus faecalis (GC 6189): 8 µg/mL (≈ 5.73 µM)
  MIC Enterococcus faecium (GC 2243): 8 µg/mL (≈ 5.73 µM)
  MIC Enterococcus faecium (GC 4556): 8 µg/mL (≈ 5.73 µM)
  MIC Enterococcus faecium (GC 4557): 4 µg/mL (≈ 2.87 µM)
Streptococcus sp.; Streptococcus agalactiae (GC 4564)
  MIC Streptococcus agalactiae (GC 4564): 2 µg/mL (≈ 1.43 µM)
Streptococcus sp.; Streptococcus pneumoniae (ATCC 6301)
  MIC Streptococcus pneumoniae (ATCC 6301): 0.5 µg/mL (≈ 0.358 µM)
Streptococcus sp.; Streptococcus pneumoniae (GC 1894)
  MIC Streptococcus pneumoniae (GC 1894): 1 µg/mL (≈ 0.717 µM)
Streptococcus sp.; Streptococcus pneumoniae (GC 4565)
  MIC Streptococcus pneumoniae (GC 4565): 2 µg/mL (≈ 1.43 µM)
Streptococcus sp.; Streptococcus pyogenes (GC 4563)
  MIC Streptococcus pyogenes (GC 4563): 2 µg/mL (≈ 1.43 µM)
Streptococcus sp.; [3]
  MIC Streptococcus agalactiae (GC 4564): 2 µg/mL (≈ 1.43 µM)
  MIC Streptococcus pneumoniae (ATCC 6301): 0.5 µg/mL (≈ 0.358 µM)
  MIC Streptococcus pneumoniae (GC 1894): 1 µg/mL (≈ 0.717 µM)
  MIC Streptococcus pneumoniae (GC 4565): 2 µg/mL (≈ 1.43 µM)
  MIC Streptococcus pyogenes (GC 4563): 2 µg/mL (≈ 1.43 µM)
Staphylococcus sp.; strain ATCC 29213
  MIC Staphylococcus aureus (ATCC 29213): 4 µg/mL (≈ 2.87 µM)
Staphylococcus sp.; strain GC 1131
  MIC Staphylococcus aureus (GC 1131): 4 µg/mL (≈ 2.87 µM)
Staphylococcus sp.; strain GC 3051
  MIC Staphylococcus aureus (GC 3051): 2 µg/mL (≈ 1.43 µM)
Staphylococcus sp.; strain GC 3053
  MIC Staphylococcus aureus (GC 3053): 2 µg/mL (≈ 1.43 µM)
Staphylococcus sp.; strain GC 4541
  MIC Staphylococcus aureus (GC 4541): 2 µg/mL (≈ 1.43 µM)
Staphylococcus sp.; strain GC 4542
  MIC Staphylococcus aureus (GC 4542): 2 µg/mL (≈ 1.43 µM)
Staphylococcus sp.; strain GC 4543
  MIC Staphylococcus aureus-SMITH (GC 4543): 2 µg/mL (≈ 1.43 µM)
Staphylococcus sp.; strain GC 4544
  MIC Staphylococcus aureus (GC 4544): 8 µg/mL (≈ 5.73 µM)
Staphylococcus sp.; strain GC 4545
  MIC Staphylococcus aureus (GC 4545): 2 µg/mL (≈ 1.43 µM)
Staphylococcus sp.; strain GC 4546
  MIC Staphylococcus haemolyticus (GC 4546): 2 µg/mL (≈ 1.43 µM)
Staphylococcus sp.; strain GC 4547
  MIC Coagulase Negative Staphylococcus (GC 4547): 2 µg/mL (≈ 1.43 µM)
Staphylococcus sp.; strain GC 4548
  MIC Coagulase Negative Staphylococcus (GC 4548): 2 µg/mL (≈ 1.43 µM)
Staphylococcus sp.; strain GC 4549
  MIC Coagulase Negative Staphylococcus (GC 4549): 2 µg/mL (≈ 1.43 µM)
Staphylococcus sp.; strain GC 4551
  MIC Coagulase Negative Staphylococcus (GC 4551): 4 µg/mL (≈ 2.87 µM)
Staphylococcus sp.; strain GC 6257
  MIC Coagulase Negative Staphylococcus (GC 6257): 1 µg/mL (≈ 0.717 µM)
Escherichia coli; Escherichia coli (ATCC 25922)
  MIC Escherichia coli (ATCC 25922): 64 µg/mL (≈ 45.9 µM)
Escherichia coli; Escherichia coli (GC 4559)
  MIC Escherichia coli (GC 4559): 64 µg/mL (≈ 45.9 µM)
Escherichia coli; Escherichia coli (GC 4560)
  MIC Escherichia coli (GC 4560): 4 µg/mL (≈ 2.87 µM)
[1]
  Anatomical Pathology (Day 10), Heart: 0
  Anatomical Pathology (Day 10), Kidney: +++
[2]
  median effective dose (ED50), Staphylococcus aureus-SMITH (GC 4543): 0.5 mg/kg
